Source: article PMC4020173 (Bioorganic & medicinal chemistry, 2014)
Entries after “also recorded” stand apart in the source; their conditions may differ.

Assays:
[1] = tested on: MDA-MB-436 human breast cancer xenograft tumors; experiment: MicroPET imaging with [^18F]12 in MDA-MB-436 tumor-bearing mice; type: in vivo; details: MDA-MB-436 tumors in mice; olaparib 50 mg/kg i.p. or 12 1 mg/kg i.p., 20 min prior to tracer injection
MDA-MB-231 tumors = experiment: MicroPET imaging with [^18F]12 in MDA-MB-231 tumor-bearing mice; type: in vivo; details: MDA-MB-231 tumor in mice; olaparib i.p. 50 mg/kg 20 min pretreatment; time-radioactivity curves

## O=C1NCCn2c(-c3ccc(OCCF)cc3)nc3cccc1c32 [Compound 12, 5,6-Dihydro-2-(4-(2-fluoroethoxy)phenyl)-imidazo[4,5,1-jk][1,4]benzodiazepin-7(4H)-ones]
[1]
  Effect of pretreatment on [^18F]12 uptake in tumor (blocking): decreased [^18F]12 uptake in the tumors to the background tissue activity levels; also recorded: blocked

## O=C(c1cc(Cc2n[nH]c(=O)c3ccccc23)ccc1F)N1CCN(C(=O)C2CC2)CC1 [olaparib]
[1]
  Effect of pretreatment on [^18F]12 uptake in tumor (blocking): blocked; also recorded: decreased [^18F]12 uptake in the tumors to the background tissue activity levels
MDA-MB-231 tumors
  Effect of pretreatment on [^18F]12 uptake in tumor (blocking): decreased [^18F]12 uptake
